Results on 20 compounds are retold here after patent US20250136606A1, “MODULATORS OF TRPML, THEIR COMPOSITIONS AND METHODS OF USE” (Caraway Therapeutics, Inc., priority 2021, published 2025).

SMILES strings stand for the structures. Read-outs that look alike come from different tables or passages of the source. Where only a bound is given, the exact number is not on record here.

The target of one test is T1, TRPML3 (Homo sapiens, UniProt Q8TDD5).
T1 construct: expressed in transfected cells
T1 sequence (Q8TDD5 1-553): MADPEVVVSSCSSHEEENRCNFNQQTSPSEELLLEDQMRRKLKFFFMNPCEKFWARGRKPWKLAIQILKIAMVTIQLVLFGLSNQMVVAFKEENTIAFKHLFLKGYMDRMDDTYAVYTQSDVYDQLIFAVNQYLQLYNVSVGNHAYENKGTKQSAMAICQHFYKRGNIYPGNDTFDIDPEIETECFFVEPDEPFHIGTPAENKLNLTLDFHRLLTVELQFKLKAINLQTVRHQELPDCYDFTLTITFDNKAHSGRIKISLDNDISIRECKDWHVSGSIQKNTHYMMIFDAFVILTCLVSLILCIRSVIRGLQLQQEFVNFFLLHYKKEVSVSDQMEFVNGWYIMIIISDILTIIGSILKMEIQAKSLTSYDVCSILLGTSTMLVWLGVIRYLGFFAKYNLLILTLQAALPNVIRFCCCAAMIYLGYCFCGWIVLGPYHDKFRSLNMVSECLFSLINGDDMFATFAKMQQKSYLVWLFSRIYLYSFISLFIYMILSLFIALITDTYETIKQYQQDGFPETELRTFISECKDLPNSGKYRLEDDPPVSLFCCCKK
Nature of the test: Fluorescent TRPML3 assay (performed as for TRPML1, substituting the TRPML3 subtype). Type of test: cell-based. As to the method:
(§1) HEK-293 Trex cells were stably transfected with a construct consisting of the human coding sequence for TRPML1 cloned into the […] plasmid pCDNA5 T/O. Mutations were introduced into the TRPML1 sequence to facilitate expression on the cell surface (Silvia Vergarajauregui, Rosa Puertollano, Traffic. 2006 March; 7(3): 337-353). Briefly, the cells are cultured in 150 mm round tissue culture dishes containing 20 mL of media. The day before the assay the cells are rinsed with DPBS-Ca—Mg and then treated briefly with Trypsin-EDTA. The Trypsin-EDTA is diluted with growth media, and cells are counted. 38×10^6 cells are re-plated into 150 mm round tissue culture dishes in media containing 0.5 ug/mL doxycycline to induce expression of hTRPML1.
(§2) The day of the experiment cells are lifted from the plates as above and collected by centrifugation. The cells are then suspended in dye loading buffer consisting of Ringer's solution supplemented with 0.1% Pluronic Acid and 1 micromolar Fluo4-AM dye. Cells are loaded for ˜60 minutes in the dark with occasional mixing. The cells are collected by centrifugation, the loading media aspirated, and the cells resuspended in 25 mL Ringer's solution and incubated ˜60 minutes in the dark. The cells are again collected by centrifugation, rinsed in Ringer's Solution and resuspended to […] in modified Ringer's solution containing 10 mM calcium.
(§3) Compounds are dissolved to a concentration of 10 millimolar with DMSO. Compound plates are created by dispensing compounds into 384 well black wall clear bottom plates (Greiner 781091). Positive and negative controls are included on each plate. Typically, different amounts of each compound are tested ranging from 100 nanoMoles (20 micromolar final concentration) decreasing in half-log steps to 31 picoMoles (6 nanomolar final concentration). Each concentration is typically tested in triplicate.
(§4) 50 microliters of dye-loaded cells are dispensed into each well of the compound assay plate created above. The fluorescence in each well is then determined with an excitation wavelength of 480 nm and an emission wavelength of 540 nm using either a Molecular Devices SpectraMax multimode plate reader or a Hamamatsu FDSS/uCell plate imager.
(§5) The resulting fluorescence for each well is exported as an ascii file and loaded into our LIMS for analysis. The percent activity of each compound at each concentration is determined by comparison to the positive and negative control wells included in each plate.
TRPML2 and TRPML3 Assays Assays for TRPML2 and TRPML3 were performed as above for TRPML1, by substituting the appropriate TRPML2 or TRPML3 subtype for the TRPML1.
(§6) EC50 values were calculated using a non-linear regression of Prism. In the table, “A” indicates an EC50 of less than 100 nM, “B” indicates an EC50 range from 100 nM to 500 nM; “C” indicates an EC50 range from 500 nM to 2 μM; and “D” indicates an EC50 greater than 2 μM.

The target in the next test is TRPML1 (Homo sapiens, UniProt Q9GZU1). Description: Fluorescent TRPML1 assay (Fluo4-AM calcium fluorescence in doxycycline-induced HEK-293 Trex cells). The format is cell-based. As to the method: as §1, §2, §3, §4, §5, §6
Chain of TRPML1 (Q9GZU1 whole entry L15A/L16A/L577A/L578A, form open): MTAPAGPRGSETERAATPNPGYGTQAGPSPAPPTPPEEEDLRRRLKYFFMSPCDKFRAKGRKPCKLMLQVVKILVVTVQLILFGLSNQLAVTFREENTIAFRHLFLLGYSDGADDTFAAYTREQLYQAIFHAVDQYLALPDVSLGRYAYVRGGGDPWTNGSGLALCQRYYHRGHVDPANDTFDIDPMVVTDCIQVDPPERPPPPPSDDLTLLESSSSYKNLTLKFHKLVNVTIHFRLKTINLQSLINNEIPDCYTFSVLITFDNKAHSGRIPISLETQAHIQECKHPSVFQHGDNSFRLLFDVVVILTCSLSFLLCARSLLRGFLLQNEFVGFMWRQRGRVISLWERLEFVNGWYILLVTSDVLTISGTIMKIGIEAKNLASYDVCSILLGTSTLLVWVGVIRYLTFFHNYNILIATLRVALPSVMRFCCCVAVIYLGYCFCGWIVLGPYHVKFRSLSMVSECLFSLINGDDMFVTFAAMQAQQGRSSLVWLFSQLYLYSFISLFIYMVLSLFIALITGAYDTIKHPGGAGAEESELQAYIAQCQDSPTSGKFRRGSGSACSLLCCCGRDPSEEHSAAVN

The term EC50 denotes the concentration giving half of the maximal effect.

Take `CC(C)(C)OC(=O)N1CCN(c2ncnc3c2c(C2CC2)cn3-c2cc(F)cc(F)c2)C[C@@H]1C(F)F` (single isomer, unassigned) [Compound 315]: the EC50 at TRPML3 (fluorescent calcium assay) and on TRPML1 (fluorescent calcium assay) was 0.5 to 2 µM in each case.
With `C[C@@H]1CN(c2ncnc3c2c(C(F)(F)F)cn3[C@H]2CCCC(F)(F)C2)[C@@H](C)CN1C(=O)OC(C)(C)C` (single isomer, unassigned) [Compound 713], the concentration giving a half-maximal response (EC50) on TRPML3 fell in the range of 0.1 to 0.5 µM; at TRPML1, 0.5 to 2 µM.
Take `CCOC(=O)N1C[C@H](C)N(c2ncnc3c2c(-c2cnccn2)cn3-c2cccc(Cl)c2)C[C@H]1C` [Compound 125, Ethyl (2R,5S)-4-(7-(3-chlorophenyl)-5-(pyrazin-2-yl)-7H-pyrrolo[2,3-d]pyrimidin-4-yl)-2,5-dimethylpiperazine-1-carboxylate]: the EC50 on TRPML3 (fluorescent calcium assay) and at TRPML1 (fluorescent calcium assay) was 0.5 to 2 µM in each case.
Regarding `CCOC(=O)N1CCN(c2ncnc3c2c(-c2ccccc2F)cn3-c2cncc(OC)c2)[C@@H](C)C1` [Compound 126, ethyl (S)-4-(5-(2-fluorophenyl)-7-(5-methoxypyridin-3-yl)-7H-pyrrolo[2,3-d]pyrimidin-4-yl)-3-methylpiperazine-1-carboxylate], the EC50 on TRPML3 (fluorescent calcium assay) and at TRPML1 (fluorescent calcium assay) was 0.5 to 2 µM in each case.
As to `CCOC(=O)N1CCN(c2ncnc3c2c(C2CC2)cn3-c2cncc(C)c2)[C@@H](C)C1` [Compound 153, ethyl (S)-4-(5-cyclopropyl-7-(5-methylpyridin-3-yl)-7H-pyrrolo[2,3-d]pyrimidin-4-yl)-3-methylpiperazine-1-carboxylate], the concentration for a half-maximal effect (EC50) on TRPML3 (fluorescent calcium assay) and on TRPML1 (fluorescent calcium assay) was > 2 µM in each case.
On to `CCOC(=O)N1C[C@H](C)N(c2ncnc3c2c(C2CC2)cn3-c2cccc(Cl)c2)[C@@H](C)C1` [Compound 189, ethyl (3S,5S)-4-(7-(3-chlorophenyl)-5-cyclopropyl-7H-pyrrolo[2,3-d]pyrimidin-4-yl)-3,5-dimethylpiperazine-1-carboxylate], for which the EC50 on TRPML3 (fluorescent calcium assay) and at TRPML1 (fluorescent calcium assay) was 0.1 to 0.5 µM in each case.
In the case of `C[C@@H]1CN(C(=O)OC(C)(C)C)CCN1c1ncnc2c1c(N1CCOCC1)cn2-c1cc(F)cc(F)c1` [Compound 227, tert-Butyl (R)-4-(7-(3,5-difluorophenyl)-5-morpholino-7H-pyrrolo[2,3-d]pyrimidin-4-yl)-3-methylpiperazine-1-carboxylate], the figures for the concentration giving a half-maximal response (EC50) on TRPML3 (fluorescent calcium assay) and on TRPML1 (fluorescent calcium assay) were 0.1 to 0.5 µM and 0.5 to 2 µM, respectively.
Turning to `C[C@@H]1CN(c2ncnc3c2c(N2CCC[C@H]2CO)cn3-c2cccc(Cl)c2)CCN1C(=O)OC(C)(C)C` [Compound 283, tert-butyl (R)-4-(7-(3-chlorophenyl)-5-((S)-2-(hydroxymethyl)pyrrolidin-1-yl)-7H-pyrrolo[2,3-d]pyrimidin-4-yl)-2-methylpiperazine-1-carboxylate], the half-maximal effective concentration (EC50) at TRPML3 (fluorescent calcium assay) was 0.1 to 0.5 µM; at TRPML1 (fluorescent calcium assay), > 2 µM.
The like results for `C[C@H]1CCCN1c1cn(-c2cccc(Cl)c2)c2ncnc(N3CCN(C(=O)OC(C)(C)C)C[C@@H]3C)c12` [Compound 316, tert-butyl (S)-4-(7-(3-chlorophenyl)-5-((S)-2-methylpyrrolidin-1-yl)-7H-pyrrolo[2,3-d]pyrimidin-4-yl)-3-methylpiperazine-1-carboxylate] were, in that order, < 0.1 µM and 0.5 to 2 µM.
Turning to `C[C@H]1CN(C(=O)OC(C)(C)C)CCN1c1ncnc2c1c(N1CCC(C)(C)C1)cn2-c1cccc(C#N)c1` [Compound 358, tert-Butyl (S)-4-(7-(3-cyanophenyl)-5-(3,3-dimethylpyrrolidin-1-yl)-7H-pyrrolo[2,3-d]pyrimidin-4-yl)-3-methylpiperazine-1-carboxylate], the EC50 at TRPML1 (fluorescent calcium assay) is < 0.1 µM.
Turning to `C[C@H]1CN(C(=O)OC(C)(C)C(F)(F)F)CCN1c1ncnc2c1c(N1CCCC1)cn2C1CCCCC1` [Compound 359, 1,1,1-trifluoro-2-methylpropan-2-yl (S)-4-(7-cyclohexyl-5-(pyrrolidin-1-yl)-7H-pyrrolo[2,3-d]pyrimidin-4-yl)-3-methylpiperazine-1-carboxylate], at TRPML1 (fluorescent calcium assay), the EC50 lay within 0.1 to 0.5 µM.
The same measure, in the same setting: under `C[C@H]1CN(C(=O)OC(C)(C)C)CCN1c1ncnc2c1c(N1CCCC1)cn2C1CCOCC1` [Compound 360, tert-butyl (S)-3-methyl-4-(5-(pyrrolidin-1-yl)-7-(tetrahydro-2H-pyran-4-yl)-7H-pyrrolo[2,3-d]pyrimidin-4-yl)piperazine-1-carboxylate] stands 0.5 to 2 µM; under `C[C@H]1CN(C(=O)OC(C)(C)C)CCN1c1ncnc2c1c(C1CC1)cn2[C@@H]1C[C@@H]2CC[C@H]1C2` [Compound 361, tert-butyl (S)-4-(7-((1S,2R,4R)-bicyclo[2.2.1]heptan-2-yl)-5-cyclopropyl-7H-pyrrolo[2,3-d]pyrimidin-4-yl)-3-methylpiperazine-1-carboxylate], < 0.1 µM.
On to `C[C@H]1CN(C(=O)OCC(F)(F)F)CCN1c1ncnc2c1c(-c1ccccn1)cn2-c1cc(C#N)ccn1` [Compound 372, 2,2,2-trifluoroethyl (S)-4-(7-(4-cyanopyridin-2-yl)-5-(pyridin-2-yl)-7H-pyrrolo[2,3-d]pyrimidin-4-yl)-3-methylpiperazine-1-carboxylate], for which the concentration giving a half-maximal response (EC50) on TRPML3 (fluorescent calcium assay) and at TRPML1 (fluorescent calcium assay) was 0.1 to 0.5 µM in each case.
Consider `N#Cc1ccnc(-n2cc(-c3ccccc3F)c3c(N4CCN(C(=O)OCC(F)(F)F)CC4)ncnc32)c1` [Compound 373, 2,2,2-trifluoroethyl 4-(7-(4-cyanopyridin-2-yl)-5-(2-fluorophenyl)-7H-pyrrolo[2,3-d]pyrimidin-4-yl)piperazine-1-carboxylate], for which the EC50 is < 0.1 µM at TRPML3 (fluorescent calcium assay) and 0.1 to 0.5 µM on TRPML1 (fluorescent calcium assay).
The like results for `C[C@H]1CN(C(=O)OC(C)(C)C)CCN1c1ncnc2c1c(N1CCOCC1)cn2-c1cc(C#N)ccn1` [Compound 380, tert-butyl (S)-4-(7-(4-cyanopyridin-2-yl)-5-morpholino-7H-pyrrolo[2,3-d]pyrimidin-4-yl)-3-methylpiperazine-1-carboxylate] were, in that order, 0.5 to 2 µM and 0.1 to 0.5 µM.
The like results for `C[C@H]1CN(C(=O)OC(C)(C)C)CCN1c1ncnc2c1c(C1CC1)cn2C1CCCC(F)(F)C1` (stereo partly drawn) [Compound 382, tert-butyl (3S)-4-(5-cyclopropyl-7-(3,3-difluorocyclohexyl)-7H-pyrrolo[2,3-d]pyrimidin-4-yl)-3-methylpiperazine-1-carboxylate] were, in that order, 0.5 to 2 µM and 0.5 to 2 µM.
As for `C[C@H]1CN(C(=O)OC(C)(C)C)CCN1c1ncnc2c1c(N1CCCC1)cn2C12CCC(CC1)CC2` [Compound 383, tert-butyl (S)-4-(7-(bicyclo[2.2.2]octan-1-yl)-5-(pyrrolidin-1-yl)-7H-pyrrolo[2,3-d]pyrimidin-4-yl)-3-methylpiperazine-1-carboxylate], the EC50 on TRPML3 (fluorescent calcium assay) is > 2 µM; on TRPML1 (fluorescent calcium assay), 0.1 to 0.5 µM.
`CC(C)(OC(=O)N1CCN(c2ncnc3c2c(C2CC2)cn3-c2cc(C#N)ccn2)CC1)C(F)(F)F` [Compound 385, 1,1,1-trifluoro-2-methylpropan-2-yl 4-(7-(4-cyanopyridin-2-yl)-5-cyclopropyl-7H-pyrrolo[2,3-d]pyrimidin-4-yl)piperazine-1-carboxylate]: the EC50 at TRPML3 (fluorescent calcium assay) and on TRPML1 (fluorescent calcium assay) was 0.1 to 0.5 µM throughout.
Consider `CC(C)OC(=O)N1CCN(c2ncnc3c2c(C2CC2)cn3-c2cc(C#N)ccn2)[C@@H](C)C1` [Compound 386, isopropyl (S)-4-(7-(4-cyanopyridin-2-yl)-5-cyclopropyl-7H-pyrrolo[2,3-d]pyrimidin-4-yl)-3-methylpiperazine-1-carboxylate], for which the half-maximal effective concentration (EC50) at TRPML3 (fluorescent calcium assay) is 0.1 to 0.5 µM; on TRPML1 (fluorescent calcium assay), < 0.1 µM.
